Reference: article PMC11910330, “Familial Alzheimer’s disease mutations in amyloid precursor protein impair calcineurin signaling to NMDA receptors” (The Journal of Biological Chemistry, 2024)

System: GluN1A/GluN2A NMDARs
Test: Whole-cell recording of glutamate-evoked NMDAR currents in HEK 293 cells expressing GluN1A/GluN2A
Type: cell-based
Experimental: HEK 293 cells (ATCC Cat# CRL-1573) were obtained at passage 37 and used for a maximum of six passages. Cell cultures were maintained in Dulbecco’s modified Eagle’s medium (DMEM) with 10% fetal bovine serum (Life Technologies, Inc.) and penicillin/streptomycin (P/S). For electrophysiology, cells were plated at low density (∼50,000 cells/ml) on 15-mm round glass coverslips in 12-well plates. Cells were transfected using the Ca^2+ phosphate method with 1 μg of each construct per coverslip. For control cells, 0.3 μg of pEGFP (GenBank U55762.1) was included as a transfection marker. Epifluorescence was used to confirm the expression of the corresponding APP family members and APP FAD mutants. For biochemistry, HEK 293 cells were plated at ∼50% confluence on 10 cm dishes. HEK 293 cells were transfected by the Ca^2+ phosphate method. For these experiments, 4 μg of each construct was used, with 1 μg of mCherry (GenBank AY678264.1) used as a transfection marker. Experiments were performed 24 h after transfection.
Twenty-four hours after transfection, HEK 293 cells were visually selected for recording by GFP epifluorescence. […] whole-cell recordings of NMDA receptor currents were obtained with a Multiclamp 700A amplifier (Molecular Devices) and digitized through a Digidata 1332A using Clampex 10.3 software. Patch pipettes (2–5 MΩ for HEK 293 cells; 3–6 MΩ for neurons) contained (in mM) the following: 140 Cs methanesulfonate, 10 Hepes, five ATP (Na salt), 5 MgCl2, and 0.2 EGTA + 0.01 CaCl2 or 10 BAPTA + 0.2 CaCl2 (pH 7.4). QX-314 (2 mM) was included in the pipette solution for neuronal recordings to ensure the block of voltage-gated Na^+ currents. The extracellular solution contained (in mM) 150 NaCl, 5 KCl, 1.8 CaCl2, 10 Hepes, 11.1 glucose, 0.1 glycine (pH 7.4) and flowed at a rate of 1 to 2 ml/min. For neuronal recordings, this solution was supplemented with tetrodotoxin (0.3 μM), NBQX (10 μM), and picrotoxin (100 μM), to block voltage-gated Na^+ channels, AMPA receptors, and GABA receptors, respectively. HEK cells were lifted from the coverslip after establishment of the whole-cell configuration, to speed solution exchange, and placed ∼20 μm from the mouth of a series of flow pipes, which were controlled by solenoid valves and moved into position by a piezoelectric bimorph. With this configuration, solution exchanges were accomplished within 10 to 12 ms as assessed by the rise time (20–80%) of whole-cell agonist-evoked current responses. Flow pipes were lowered to within ∼50 μm of the surface of the coverslip and placed ∼100 to 150 μm from the soma of the cell. Currents were digitized at 2 kHz and filtered at 1 kHz. Series resistance (90–95% HEK cells; 60–70% neurons) and whole-cell capacitance compensation were employed, and input resistance was routinely monitored by 5 mV hyperpolarizing jumps between agonist applications. Cells showing sudden shifts in these parameters were discarded. Experiments were performed at a holding potential of −60 mV at 20 °C. Currents were elicited by a 3 s (5 s for neurons) application of glutamate (1 mM) in the extracellular recording solution. Desensitization was quantified as the ratio of average current remaining in the last 50 ms of the agonist application to the peak current using Clampfit 10.3 software. […] Current density was calculated by dividing the peak current by the compensated whole-cell capacitance.

Molecule | effect on NMDAR desensitization (in words) (CsA 1 μM, GFP-expressing cells, relative to untreated cells) | ss/p ratio in APP-expressing cells (in words) (CsA 1 μM, low intracellular EGTA) | effect on NMDAR current amplitude (in words) (10 mM BAPTA in pipette, APP-expressing cells, within 1–3 min) | effect on NMDAR desensitization (in words) (10 mM BAPTA in pipette, GFP controls and APP-expressing cells) | effect on NMDAR current amplitude (in words) (10 mM BAPTA in pipette, GFP-expressing cells)
cyclosporin A [CsA] | desensitization appeared modestly enhanced | no longer different (and modestly elevated) compared to GFP-expressing cells | – | – | –
O=C(O)CN(CC(=O)O)c1ccccc1OCCOc1ccccc1N(CC(=O)O)CC(=O)O [BAPTA] | – | – | increase in the amplitude of GluN1A/GluN2A currents | did not appear to modify the degree of NMDAR desensitization | declined in amplitude by a similar extent to that seen with low EGTA concentrations
